Measurements as given in US8778966B2, “Quinolinone derivatives as PARP and tank inhibitors” (Janssen Pharmaceutica, NV, priority 2007, dated 2014).

Experiments:
Human PARP-1 enzyme = molecular target: T1, Human PARP-1 enzyme (Homo sapiens, UniProt P09874); assay: In vitro Scintillation Proximity Assay (SPA) for PARP-1 inhibitory activity; format: biochemical; conditions: read-out: in vitro SPA assay PARP-1 pIC50 (converted)
T1 construct: purchased Trevigen
How it was run: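 SPA assay: nicked-DNA-activated PARP-1 (0.1–0.2 μg/ml) ADP-ribosylates biotinylated histones (2 μg/ml) using [3H]-NAD+, 20 min at RT in Tris pH 8/DTT/MgCl2, stopped with 2 mM NAD+. Blank-subtracted cpm expressed as % control; IC50 by linear interpolation, reported as pIC50 (10−5 to 3×10−9 M tested).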

HCT116 cells = assay: Antiproliferative activity, Alamar Blue assay, HCT116 cells; format: cell-based, human; conditions: Homo sapiens, HCT-116, HCT116 cells; read-out: HCT116 antiproliferative activity pIC50 (converted)
How it was run: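 HCT116 cells seeded, adhered 24 h, then exposed to compound for 4 days; Alamar Blue (resazurin) added for 4 h at 37 °C, fluorescence read at 540/590 nm. Viability as % of untreated control, triplicate wells; IC50 by probit analysis, reported as pIC50.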

T1 sequence (P09874 whole entry): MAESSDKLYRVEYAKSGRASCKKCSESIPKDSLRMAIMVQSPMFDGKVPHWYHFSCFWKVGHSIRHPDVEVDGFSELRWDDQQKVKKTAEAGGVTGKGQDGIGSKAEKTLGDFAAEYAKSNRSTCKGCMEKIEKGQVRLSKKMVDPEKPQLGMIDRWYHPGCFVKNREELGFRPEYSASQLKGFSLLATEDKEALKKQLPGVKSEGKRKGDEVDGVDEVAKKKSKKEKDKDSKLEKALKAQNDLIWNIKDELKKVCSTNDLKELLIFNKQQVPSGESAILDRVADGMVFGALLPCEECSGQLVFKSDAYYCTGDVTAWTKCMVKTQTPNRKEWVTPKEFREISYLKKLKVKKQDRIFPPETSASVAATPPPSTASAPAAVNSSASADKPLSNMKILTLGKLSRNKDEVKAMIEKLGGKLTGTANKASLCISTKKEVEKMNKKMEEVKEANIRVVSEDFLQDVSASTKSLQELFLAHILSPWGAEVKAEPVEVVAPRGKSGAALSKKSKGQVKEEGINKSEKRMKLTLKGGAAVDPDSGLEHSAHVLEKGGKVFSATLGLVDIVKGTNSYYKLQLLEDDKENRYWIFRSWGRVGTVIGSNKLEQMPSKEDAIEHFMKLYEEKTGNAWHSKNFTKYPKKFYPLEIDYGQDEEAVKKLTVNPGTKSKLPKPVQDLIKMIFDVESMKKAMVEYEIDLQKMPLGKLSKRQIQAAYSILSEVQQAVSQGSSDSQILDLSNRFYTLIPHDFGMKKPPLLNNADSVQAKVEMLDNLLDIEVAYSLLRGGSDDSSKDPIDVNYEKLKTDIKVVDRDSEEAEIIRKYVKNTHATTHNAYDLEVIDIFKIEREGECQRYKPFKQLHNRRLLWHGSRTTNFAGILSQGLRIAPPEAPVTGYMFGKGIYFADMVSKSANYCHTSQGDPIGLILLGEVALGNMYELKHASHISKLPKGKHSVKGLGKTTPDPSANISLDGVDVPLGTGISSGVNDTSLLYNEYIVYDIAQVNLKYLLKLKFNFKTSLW

SMILES	melting point [°C]	IC50 (Human PARP-1 enzyme) [µM]	IC50 (HCT116 cells) [µM]
CCc1cc2ccc(C(C)(C#N)Cc3cccc(I)c3)cc2[nH]c1=O (stereo not drawn) [Compound 19]	158	1	0.0501
CCc1cc2ccc(C(C)(C#N)Cc3cccc(N(C)C)c3)cc2[nH]c1=O (stereo not drawn) [Compound 20]	193	0.398	0.2
CCc1cc2ccc(C(C)(C#N)Cc3cccc(N4CCOCC4)c3)cc2[nH]c1=O (stereo not drawn) [Compound 21]	162	0.398	1.26
CCc1cc2ccc(C(C)(C#N)Cc3cccc(O)c3)cc2[nH]c1=O (stereo not drawn) [Compound 22]	217	0.126	> 10
CCc1cc2ccc(C(C)(C#N)Cc3cccc(OCCOC)c3)cc2[nH]c1=O (stereo not drawn) [Compound 24]	134	0.631	1
CCc1cc2ccc(C(C)(C#N)Cc3cccc(S(F)(F)(F)(F)F)c3)cc2[nH]c1=O (stereo not drawn) [Compound 177]	124	0.0794	2
CCc1cc2ccc(C(C)(C#N)CCCN(C)C(=O)c3ccc(F)cc3)cc2[nH]c1=O (stereo not drawn) [Compound 188]	256	0.0794	1
CCc1cc2ccc([C@](C)(C#N)CN(C)Cc3ccc(C#N)cc3)cc2[nH]c1=O [Compound 190]	106	0.0631	10
COc1cc2ccc(C(C)(C#N)Cc3cccc(C#N)n3)cc2[nH]c1=O (stereo not drawn) [Compound 218]	95	0.631	1.26
CCc1cc2ccc(C(C)(C#N)Cc3ccc(Cl)nc3OC)cc2[nH]c1=O (stereo not drawn) [Compound 225]	160	0.0398	0.501
CCc1cc2ccc(C(C)(C#N)Cc3cc(OC)cc(OC)n3)cc2[nH]c1=O (stereo not drawn) [Compound 232]	65	0.0251	0.1
CCc1cc2ccc(C(C)(C#N)Cc3cc(C#N)cc4c3OCC4)cc2[nH]c1=O (stereo not drawn) [Compound 236]	250	0.02	0.2
CCc1cc2ccc(C(C)(C#N)Cc3cc4ccccc4nn3)cc2[nH]c1=O (stereo not drawn) [Compound 238]	250	0.0398	1.58

Further lines, results first:

melting point [°C]	IC50 (Human PARP-1 enzyme) [µM]	IC50 (HCT116 cells) [µM]	SMILES
150	1.26	3.16	CCc1cc2ccc(C(C)(C#N)Cc3cccc(OCc4ccccc4)c3)cc2[nH]c1=O (stereo not drawn) [Compound 23]
212	0.0398	0.1	CCc1cc2ccc(C(C)(C#N)Cc3cc(C)cc(C#N)c3)cc2[nH]c1=O (stereo not drawn) [Compound 174]
> 250	0.0251	2	CCc1cc2ccc(C(C)(C#N)Cc3cccc(C4(N)CC4)c3)cc2[nH]c1=O (stereo not drawn) [Compound 180]
> 250	0.1	6.31	CCc1cc2cc(C)c(C(C)(C#N)Cc3cccc(C#N)n3)cc2[nH]c1=O (stereo not drawn) [Compound 208]
222	0.02	3.16	CCc1cc2ccc(C(C)(C#N)Cc3ccc(Cl)nc3Cl)cc2[nH]c1=O (stereo not drawn) [Compound 212]
167	0.0126	2	CCc1cc2ccc(C(C)(C#N)Cc3ccc(OC)nc3Cl)cc2[nH]c1=O (stereo not drawn) [Compound 224]
155	0.0501	1.26	CCc1cc2ccc(C(C)(C#N)Cc3cccc(N4CCCC4)n3)cc2[nH]c1=O (stereo not drawn) [Compound 226]
